Data from patent US10925858B2, “S-nitrosoglutathione (GSNO) and GSNO reductase inhibitors for use in therapy” (MUSC FOUNDATION FOR RESEARCH DEVELOPMENT, priority 2017, dated 2021).

Experiments:
IFN-γ, IL-17 = experiment: IFN-γ and IL-17 in spinal cords of passively immunized EAE mice, ELISA; format: in vivo, SJL mice; conditions: T cells from GSNO treated vs untreated EAE mice
Protocol: At the peak of EAE disease, the mice were sacrificed and CD4+ T cells were purified from draining lymph nodes (DLN) and spleens by CD4+ T cell isolation kit (Miltenyi, Auburn. Calif.). The purified T cells (2.5×10^6 cells/ml) were cultured in 96-well round-bottom microculture plates (Falcon Labware, Oxnard, Calif.) in RPMI-complete media containing RPMI 1640 (Life Technologies, Gaithersburg, Md.), 10% FBS, and 100 μg/ml streptomycin and penicillin (Atlanta Biologicals Norcross, Ga.), 1 mM glutamine, 1 mM nonessential amino acids, and 50 μM 2-mercaptoethanol (Sigma-Aldrich). For skewing of different CD4+ T cell subsets and their expansion, the isolated CD4+ T cells were stimulated with PLP139-151 (5 μg/ml) with IL-2 (10 ng/ml) for TH0, IL-2 (10 ng/ml), rhIL-12p35 (10 ng/ml), and anti-IL-4 (1 μg/ml) for TH1, or recombinant mouse IL-12/23p40 homodimer (10 ng/ml), anti-IFN-γ 1 (μg/ml), anti-IL-4 (1 μg/ml) for TO 17. All cytokines and antibodies were purchased from BD Biosciences (San Diego, Calif.). […]
(20-30×10^6 T cells in 300 μl RPMI media per mouse) were injected to naive SJL female mice (8-10 week old) via intraperitoneal route. […] Clinical EAE disease was measured as describe above.

[1] = test system: IFN-γ, IL-4, IL-17, IL-10; experiment: ELISA of CD4+ T cell subset specific cytokines from spleen derived cells of EAE mice after MOG restimulation; format: in vivo, C57BL/6 mice; conditions: N6022, MOG restimulation
Protocol: Female C57BL/6 mice of 8-12 weeks of age, purchased from Jackson Laboratory, were provided with food and water ad libitum and were kept in pathogen free animal care facility of Medical University of South Carolina (MUSC) throughout the study. All procedures were conducted in accordance with accepted standards of humane care as approved by the Institutional Animal Care and Use Committee (Approved number: AR #1644). EAE was induced as described previously (Nath et al., 2009). Briefly, mice were immunized subcutaneously in the flank regions with MOG35-55 peptide (MOG; 200 μg; Peptide International) emulsified (1:1) in 100 ul complete Freund's adjuvant (CFA) on day 0 and day 7. Additionally, 300 ng of Pertussis toxin (Sigma-Aldrich, St. Louis, Mo.) was given on day 0 and day 2 by i.p. injection. Pertussis toxin used as per the standardized protocol reported by us and other investigators for the induction of EAE (Nath et al., 2009). Similarly, healthy control group received subcutaneous injection of PBS and CFA emulsion on day 0 and day 7. Clinical signs of EAE were scored by examiners blinded to experimental treatments using the following scale: 0=no clinical signs of disease; 1=piloerection and sluggish; 2=limp tail (ataxia); 2.5=ataxia with partial hind limb paralysis; 3=full paralysis of hind limb; 3.5=full paralysis of hind limb with paralysis of one fore limb; 4=full paralysis of two limbs; 4.5=moribund stage; 5=death. […] The drug treatments were continued till the termination of the study (day 41 post immunization). EAE animals without drug treatment received PBS. Likewise, healthy controls received vehicle.
Fluorescence flow cytometry analysis for each subset of CD4+ T cells (TH1, TH2, TH17, CD4+CD25+ FOXP3+ Treg, and CD4+CD25+ FOXP3− Treg) were performed based on our previous report with modification (Nath et al., 2004). Briefly, control mice, EAE mice. EAE mice treated with GSNO. […] Following the preparation of single cell suspension, red blood cells were lysed with Pharma lyse buffer (BD Pharmingen™) and the remaining spleen cells were washed with RPMI 1640. The isolated CD4+ T cells were then resuspended with complete RPMI-media in 12-well plates (5×10^6 cells' 2 ml per well) containing MOG peptide (25 μg/ml) for 48 hrs. […] The cell pellets were washed with cell staining solution (ebioscience, Waltham, Mass. USA) and stained with fluorescence labeled antibody specific to IFN-γ for TH1. […] The cells were counted and analyzed using Beackman Coulter instrument (Beckman Coulter, Inc., Brea, Calif., USA).
ELISA assay was performed for analysis of CD4+ T cell subset specific cytokines released from cultured cells or spinal cord tissues. […] The equal amounts of proteins were analyzed for ELISA for IFN-γ. […]

| SMILES | IFN-γ in the spinal cords of passively immunized mice (IFN-γ, IL-17) | IL-17 in the spinal cords of passively immunized mice (IFN-γ, IL-17) | IL-10 production from spleen derived cells [1] | production of IFN-γ from spleen derived cells [1] | production of IL-17 from spleen derived cells [1] | IL-4 production from spleen derived cells ([1]; to the control levels) |
| --- | --- | --- | --- | --- | --- | --- |
| N[C@@H](CCC(=O)N[C@@H](CSN=O)C(=O)NCC(=O)O)C(=O)O [GSNO, S-nitrosoglutathione] | comparable levels | significantly lower levels | – | – | – | – |
| Cc1cc(C(N)=O)ccc1-n1c(CCC(=O)O)ccc1-c1ccc(-n2ccnc2)cc1 [N6022, reference compound] | – | – | enhanced | decreased | decreased | fully restored |
